Results as given in publication PMC7730961, “Discovery of Novel Dual Extracellular Regulated Protein Kinases (ERK) and Phosphoinositide 3-Kinase (PI3K) Inhibitors as a Promising Strategy for Cancer Therapy” (Molecules, 2020).
Counter-ions that a name gives are not always drawn. Like-named read-outs stand apart in the source and are kept apart here.

What was measured:
[1] = target: ERK 2 (Homo sapiens, UniProt P28482); assay: Enzymatic inhibition assay (ADP-Glo Plus luminescence kinase assay), ERK2; assay type: biochemical; details: for inhibition at 1 µM: 1 μM (1000 nM) compound
Sequence of ERK 2 (P28482 whole entry): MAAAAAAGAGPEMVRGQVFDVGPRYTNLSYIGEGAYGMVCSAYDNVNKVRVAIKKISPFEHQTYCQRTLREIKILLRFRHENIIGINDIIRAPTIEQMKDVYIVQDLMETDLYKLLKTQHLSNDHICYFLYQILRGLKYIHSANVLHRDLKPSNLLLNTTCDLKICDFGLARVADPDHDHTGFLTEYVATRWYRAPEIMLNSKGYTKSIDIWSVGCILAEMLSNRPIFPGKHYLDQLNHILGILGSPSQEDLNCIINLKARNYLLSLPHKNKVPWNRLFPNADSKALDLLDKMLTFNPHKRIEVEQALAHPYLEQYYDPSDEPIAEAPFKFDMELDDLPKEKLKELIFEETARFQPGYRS
Method: (§1) All compounds were diluted in 10% DMSO and tested in 10-dose with 3-fold serial dilution starting at a concentration of 1 μM. Of the dilution, 5 µL was added to a 50 µL reaction so that the final concentration of DMSO is 1% in all of reactions. After all of the reaction mixtures were conducted at 30 °C for 40 min, the assay was performed using ADP-Glo Plus luminescence kinase assay kit. The luminescence signal and the intensity of the luminescence signal value were detected using a multi-well spectrophotometer (the MD-SpectraMax M5 multifunctional microplate reader). It was directly proportional to the inhibition of enzyme activity.

[2] = target: PI3Kα (Homo sapiens, UniProt P42336); assay: Enzymatic inhibition assay (ADP-Glo Plus luminescence kinase assay), PI3Kα; assay type: biochemical; details: for inhibition at 1 µM: 1 μM (1000 nM) compound
Sequence of PI3Kα (P42336 whole entry): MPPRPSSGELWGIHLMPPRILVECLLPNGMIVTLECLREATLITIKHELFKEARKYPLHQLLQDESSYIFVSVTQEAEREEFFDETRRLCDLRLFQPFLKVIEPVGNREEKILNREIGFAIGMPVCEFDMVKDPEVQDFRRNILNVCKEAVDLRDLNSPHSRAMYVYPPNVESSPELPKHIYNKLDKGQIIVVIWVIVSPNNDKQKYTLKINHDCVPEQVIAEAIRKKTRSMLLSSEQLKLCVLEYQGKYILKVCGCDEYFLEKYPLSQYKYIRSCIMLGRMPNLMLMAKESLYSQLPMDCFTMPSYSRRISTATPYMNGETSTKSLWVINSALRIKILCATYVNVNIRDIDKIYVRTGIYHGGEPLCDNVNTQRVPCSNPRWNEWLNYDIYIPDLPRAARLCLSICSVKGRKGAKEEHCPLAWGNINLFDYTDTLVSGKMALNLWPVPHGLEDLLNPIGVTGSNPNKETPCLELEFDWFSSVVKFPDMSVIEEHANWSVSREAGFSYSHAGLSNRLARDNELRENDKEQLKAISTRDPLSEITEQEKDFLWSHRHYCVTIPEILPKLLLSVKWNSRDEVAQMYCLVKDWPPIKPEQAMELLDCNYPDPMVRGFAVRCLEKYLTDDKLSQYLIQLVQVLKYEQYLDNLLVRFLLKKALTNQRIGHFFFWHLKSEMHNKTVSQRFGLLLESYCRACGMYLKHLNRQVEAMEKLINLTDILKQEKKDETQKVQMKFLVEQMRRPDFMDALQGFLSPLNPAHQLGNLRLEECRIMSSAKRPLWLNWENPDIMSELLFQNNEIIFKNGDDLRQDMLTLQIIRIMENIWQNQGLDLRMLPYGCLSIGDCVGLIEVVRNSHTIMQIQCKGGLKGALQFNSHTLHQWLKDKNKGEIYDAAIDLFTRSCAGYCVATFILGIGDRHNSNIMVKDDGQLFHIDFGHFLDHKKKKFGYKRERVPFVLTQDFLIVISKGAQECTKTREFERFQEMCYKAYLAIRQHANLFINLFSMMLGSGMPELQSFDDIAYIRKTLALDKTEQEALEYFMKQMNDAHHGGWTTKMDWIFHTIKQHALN
Sequence of PI3Kα (P27986 whole entry partner): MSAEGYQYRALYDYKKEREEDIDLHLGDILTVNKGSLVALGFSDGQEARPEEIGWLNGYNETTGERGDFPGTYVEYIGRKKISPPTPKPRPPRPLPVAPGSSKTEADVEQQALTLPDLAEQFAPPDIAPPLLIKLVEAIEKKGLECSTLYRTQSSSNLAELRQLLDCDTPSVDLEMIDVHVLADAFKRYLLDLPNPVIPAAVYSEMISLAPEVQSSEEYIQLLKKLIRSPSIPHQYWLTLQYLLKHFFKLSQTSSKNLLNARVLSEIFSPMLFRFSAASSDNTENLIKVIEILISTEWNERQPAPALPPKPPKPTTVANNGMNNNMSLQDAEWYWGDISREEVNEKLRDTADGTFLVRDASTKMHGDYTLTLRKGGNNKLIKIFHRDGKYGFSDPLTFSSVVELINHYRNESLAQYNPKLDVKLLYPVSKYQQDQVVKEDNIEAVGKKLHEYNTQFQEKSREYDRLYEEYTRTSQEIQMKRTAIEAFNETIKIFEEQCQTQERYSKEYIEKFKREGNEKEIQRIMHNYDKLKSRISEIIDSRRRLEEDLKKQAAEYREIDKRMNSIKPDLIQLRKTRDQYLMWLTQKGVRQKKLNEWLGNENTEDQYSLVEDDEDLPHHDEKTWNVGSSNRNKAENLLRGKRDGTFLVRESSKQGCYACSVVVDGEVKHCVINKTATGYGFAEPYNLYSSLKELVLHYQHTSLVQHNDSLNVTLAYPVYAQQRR
Method: as §1, with “The 50 µL reaction mixture contains 40 mM Tris-HCl, pH 7.4, 10 µM ATP, 10 mM MgCl2, 0.1 mg/mL BSA, 1 mM DTT, 0.2 ug/mL ERK 2, ERK 1, PI3Kα, PI3Kβ, PI3Kγ or PI3Kδ and 100 uM lipid substrate. All” for “All”, “activity. The experimental results were converted into active percentages, a dose-response curve is drawn, and the IC50 value of inhibition was calculated using […] PRISM 5 nonlinear regression.” for “activity.”

[3] = test system: HCT-116 xenograft; assay: In vivo antitumor activity, HCT-116 xenograft in nude mice; design: species or system Balb/c-nude mice; details: intraperitoneal once daily, 21 days, 32d 5 mg/kg, BVD-523 5 mg/kg, GDC-0980 1 mg/kg; for TGI (tumor growth inhibitory rate): nude mice, combination 2.5 mg/kg + 0.5 mg/kg
Method: Male five-week-old Balb/c-nude mice (18–20 g) were injected subcutaneously with HCT-116 cells (5 × 10^7/mL cells suspended in Matrigel Matrix). […] All mice were administered by intraperitoneal q.d. The tumor volumes were measured using electronic digital calipers every 3 days and were calculated as 1/2 length × width × width.

[4] = test system: HCT116; assay: Anti-proliferation assay (MTT, 72 h), HCT116; assay type: cell-based; details: Homo sapiens, HCT-116, HCT116 cells
Method: (§2) Human cancer cell lines HCT116 and HEC1B were cultured in media with 10% FBS (GIBCO, Invitrogen Corporation, NY, USA) at 37 °C in a 5% (v/v) CO2 humidified incubator. The logarithmic growth phase cells were seeded in a 96-well plate with a density of 1 × 10^5 cells/mL, cultured at 37 °C, 5% CO2. Until the cells were 90% confluent, the medium containing compound was added to incubate for 72 h, and then the cell viability was tested by MTT analysis. Taking the drug concentration as the abscissa and the percentage of proliferation inhibitory activity corresponding to each concentration as the ordinate, using Graphpad Prism 5 to do nonlinear regression, the IC50 value of each compound was calculated.

[5] = test system: HEC1B; assay: Anti-proliferation assay (MTT, 72 h), HEC1B; assay type: cell-based; details: Homo sapiens, HEC-1B, HEC1B cells
Method: as §2

[6] = In vivo pharmacokinetic study in SD rats; design: species or system Sprague Dawley rats; details: for MRT last: read-out: MRT0–t
Method: The pharmacokinetic experiment was conducted by using 180–220 g male Sprague Dawley rats (purchased from Weitong Lihua Experimental Animal Co., Ltd., Beijing, China). The experimental animals were raised in a well-ventilated, air-conditioned standard animal room where the temperature was maintained at 20–25 °C, the humidity was maintained at 40–70%, and the light and dark were rotated for 12 h each. After about 5 days of normal feeding, rats with good physical signs can enter this experiment after veterinary inspection. All rats were fasted for 12 h before the start of the animal experiment. The 32d was dissolved in a mixture of 40% DMSO + 40% PEG400 + 20% 5% glucose injection at a concentration of 1 mg/mL (1 mg/kg). The 32d was administered to the […] by p.o. (0.2 mg/mL, 10 mg/kg), and blood samples (about 0.25 mL) were collected from the posterior orbital venous plexus after different time points (i.v.: 2 min, 15 min, 30 min, 1 h, 2 h, 4 h, 6 h, 8 h, and 12 h; po: 5 min, 15 min, 30 min, 1 h, 2 h, 4 h, 6 h, 8 h, 12 h, and 24 h) after dosing, with three […] for each time point. The whole plasma samples were kept frozen at −20 °C until LC/MS/MS analysis after centrifugation. WinNolin 8.2 software was used to calculate pharmacokinetic parameters, and GraphPad Prism 8.0 was used to draw plasma concentration-time curves.

[7] = In vitro pharmacokinetic study, oxidation metabolism in human liver microsomes; assay type: in vitro ADME; details: n = 3
Method: The pharmacokinetic experiment was conducted by using human liver microsome (purchased from Research Institute for Liver Diseases (Shanghai) Co., Ltd., Shanghai, China). The reaction mixture contained 100 μL PBS, 40 μL liver microsome and 20 μL dilution of compound 32d. After the reaction mixtures were preconducted at 37 °C for 5 min, 40 μL NADPH solution was added to start pharmacokinetic reaction, and samples were collected at different time points (5 min, 10 min, 15 min, 30 min and 45 min). Then, 100 μL of ethyl acetate was added to stop the reaction. The whole samples were added in 10 μL of an internal standard (Phenacetin) to shake for 10 min and centrifuge at 10,000 rpm for 10 min and then taken out 300 μL of supernatant.for LC/MS/MS analysis. WinNolin 8.2 software was used to calculate pharmacokinetic parameters, and GraphPad Prism 8.0 was used to draw concentration-time curves.

[8] = Solubility; assay type: physicochemical; details: relative to parent after introducing a hydrophilic group at the pyrazole NH
[9] = male, Sprague-Dawley, rat, plasma, iv, i.v. 1 mg/kg
[10] = male, Sprague-Dawley, rat, plasma, po, p.o. 10 mg/kg

Compound: 1-Cyclopentyl-3-(7-(2-methylpyridin-4-yl)pyrido[3,2-d]pyrimidin-2-yl)urea [32k]
- ERK2 Inhibition% (100 nM) ([1]; 100 nM compound): 66.5%
- PI3Kα Inhibition% (100 nM) ([2]; 100 nM compound): 15.3%

Compound: Cc1cc(-c2n[nH]c3nc(NC(=O)NCc4ccccc4)ncc23)ccn1 [16a, 1-Benzyl-3-(3-(2-methylpyridin-4-yl)-1H-pyrazolo[3,4-d]pyrimidin-6-yl)urea]
- inhibition at 1 µM [1]: 98.3%
- inhibition at 1 µM [2]: 8.7%

Compound: Cc1cc(-c2n[nH]c3nc(NC(=O)NC4CCCC4)ncc23)ccn1 [16b, 1-Cyclopentyl-3-(3-(2-methylpyridin-4-yl)-1H-pyrazolo[3,4-d]pyrimidin-6-yl)urea]
- inhibition at 1 µM [1]: 84.8%
- inhibition at 1 µM [2]: 27.4%

Compound: Cn1cc(-c2n[nH]c3nc(NC(=O)NCc4ccccc4)ncc23)cn1 [16c, 1-Benzyl-3-(3-(1-methyl-1H-pyrazol-4-yl)-1H-pyrazolo[3,4-d]pyrimidin-6-yl)urea]
- inhibition at 1 µM [1]: 97.2%
- inhibition at 1 µM [2]: 1.8%

Compound: Cn1cc(-c2n[nH]c3nc(NC(=O)NC4CCCC4)ncc23)cn1 [16d, 1-Cyclopentyl-3-(3-(1-methyl-1H-pyrazol-4-yl)-1H-pyrazolo[3,4-d]pyrimidin-6-yl)urea]
- inhibition at 1 µM [1]: 79.5%
- inhibition at 1 µM [2]: 4%

Compound: Cc1cc(-c2cnc3cnc(NC(=O)NC4CCCC4)nc3c2)ccn1 [32b, 1-Cyclopentyl-3-(7-(2-methylpyridin-4-yl)pyrido[3,2-d]pyrimidin-2-yl)urea]
- inhibition at 0.1 µM ([1]; 100 nM compound): 53.7%
- inhibition at 0.1 µM ([2]; 100 nM compound): 10.5%

Compound: O=C(Nc1ncc2ncc(-c3cccc(OC(F)(F)F)c3)cc2n1)NC1CCCC1 [32c, 1-Cyclopentyl-3-(7-(3-(trifluoromethoxy)phenyl)pyrido[3,2-d]pyrimidin-2-yl)urea]
- inhibition at 0.1 µM ([1]; 100 nM compound): 1.6%
- inhibition at 0.1 µM ([2]; 100 nM compound): -11.3%

Compound: O=C(Nc1ncc2ncc(-c3cn[nH]c3)cc2n1)NC1CCCC1 [32d, 1-(7-(1H-pyrazol-4-yl)pyrido[3,2-d]pyrimidin-2-yl)-3-cyclopentylurea]
- body weight of nude mice during treatment [3]: no observed body weight loss
- TGI (tumor growth inhibitory rate) [3]: 51%
- IC50 [1]: 73 nM
- inhibition at 0.1 µM ([1]; 100 nM compound): 49.3%
- IC50 [2]: 59 nM
- inhibition at 0.1 µM ([2]; 100 nM compound): 51.4%
- IC50 [4]: 726 nM
- IC50 [5]: 1490 nM
- AUC(0-inf) [6, 9]: 379 ng·h/mL
- AUC(0-t) [6, 9]: 368 ng·h/mL
- Cmax [6, 9]: 1310 ng/mL
- clearance [6, 9]: 44.8 mL/min/kg
- half-life [6, 9]: 2.32 h
- MRT last [6, 9]: 0.99 h
- Vd ([6]; male, Sprague-Dawley, rat, plasma, iv, i.v. 1 mg/kg, read-out: Vz): 9.12 L/kg
- bioavailability ([6]; male, Sprague-Dawley, rat, plasma, oral, p.o. 10 mg/kg vs i.v. 1 mg/kg, read-out: oral bioavailability (F)): 9.37%
- AUC(0-inf) [6, 10]: 355 ng·h/mL
- AUC(0-t) [6, 10]: 192 ng·h/mL
- Cmax [6, 10]: 129 ng/mL
- half-life [6, 10]: 2.65 h
- MRT last [6, 10]: 2.93 h
- CL ([6]; p.o. 10 mg/kg): 727.9 mL/min/kg
- Vz ([6]; p.o. 10 mg/kg): 244.74 L/kg
- K ([7]; 90 ng/mL): 0.004 min⁻¹
- half-life at 90 ng/mL [7]: 2.89 h
- microsomal CLint at 90 ng/mL [7]: 16 µL/min/mg

Compound: O=C(Nc1ncc2ncc(-c3ccnc(F)c3)cc2n1)NC1CCCC1 [32e, 1-Cyclopentyl-3-(7-(2-fluoropyridin-4-yl)pyrido[3,2-d]pyrimidin-2-yl)urea]
- inhibition at 0.1 µM ([1]; 100 nM compound): 35.4%
- inhibition at 0.1 µM ([2]; 100 nM compound): 7%

Compound: O=C(Nc1ncc2ncc(C3=CCNCC3)cc2n1)NC1CCCC1 [32f, 1-Cyclopentyl-3-(7-(1,2,3,6-tetrahydropyridin-4-yl)pyrido[3,2-d]pyrimidin-2-yl)urea hydrochloride]
- inhibition at 0.1 µM ([1]; 100 nM compound): 0.4%
- inhibition at 0.1 µM ([2]; 100 nM compound): -8.8%

Compound: Cn1cc(-c2cnc3cnc(NC(=O)NCc4ccccc4)nc3c2)cn1 [32g, 1-Benzyl-3-(7-(1-methyl-1H-pyrazol-4-yl)pyrido[3,2-d]pyrimidin-2-yl)urea]
- IC50 [1]: 83 nM
- inhibition at 0.1 µM ([1]; 100 nM compound): 55.2%
- IC50 [2]: 824 nM
- inhibition at 0.1 µM ([2]; 100 nM compound): 32.4%
- IC50 [4]: 10000 nM
- IC50 [5]: 2270 nM

Compound: Cn1cc(-c2cnc3cnc(NC(=O)Nc4ccccc4)nc3c2)cn1 [32h, 1-(7-(1-Methyl-1H-pyrazol-4-yl)pyrido[3,2-d]pyrimidin-2-yl)-3-phenylurea]
- inhibition at 0.1 µM ([1]; 100 nM compound): 17.2%
- inhibition at 0.1 µM ([2]; 100 nM compound): 24.9%

Compound: CCNC(=O)Nc1ncc2ncc(-c3cnn(C)c3)cc2n1 [32i, 1-Ethyl-3-(7-(1-methyl-1H-pyrazol-4-yl)pyrido[3,2-d]pyrimidin-2-yl)urea]
- inhibition at 0.1 µM ([1]; 100 nM compound): 22.1%
- inhibition at 0.1 µM ([2]; 100 nM compound): 33.4%

Compound: Cn1cc(-c2cnc3cnc(NC(=O)NCCN4CCOCC4)nc3c2)cn1 [32j, 1-(7-(1-Methyl-1H-pyrazol-4-yl)pyrido[3,2-d]pyrimidin-2-yl)-3-(2-morpholinoethyl)urea]
- inhibition at 0.1 µM ([1]; 100 nM compound): 6.2%
- inhibition at 0.1 µM ([2]; 100 nM compound): 15.1%

Compound: CN(C)CCn1cc(-c2cnc3cnc(NC(=O)NC4CCCC4)nc3c2)cn1 [32m, 1-Cyclopentyl-3-(7-(1-(2-(dimethylamino)ethyl)-1H-pyrazol-4-yl)pyrido[3,2-d]pyrimidin-2-yl) urea]
- inhibition at 0.1 µM ([1]; 100 nM compound): 8.4%
- inhibition at 0.1 µM ([2]; 100 nM compound): 41%
- solubility [8]: ameliorated

Compound: CC(C)Nc1cc(-c2c[nH]c(C(=O)N[C@H](CO)c3cccc(Cl)c3)c2)c(Cl)cn1 [BVD-523, reference compound]
- body weight of nude mice during treatment [3]: losing
- TGI (tumor growth inhibitory rate) [3]: 50%
- inhibition at 0.1 µM ([1]; 100 nM compound): 97.7%
- inhibition at 1 µM [1]: 97.7%
- IC50 [4]: 321 nM
- IC50 [5]: 18000 nM

Compound: Cc1c(CN2CCN(C(=O)[C@H](C)O)CC2)sc2c(N3CCOCC3)nc(-c3cnc(N)nc3)nc12 [GDC-0980, reference compound]
- body weight of nude mice during treatment [3]: losing
- TGI (tumor growth inhibitory rate) [3]: 46%
- IC50 [4]: 1060 nM
- IC50 [5]: 230 nM

Compound: Cn1cc(-c2cnc3nc(NC(=O)NC4CCCC4)ncc3c2)cn1 [compound 24, 1-Cyclopentyl-3-(6-(1-methyl-1H-pyrazol-4-yl)pyrido[2,3-d]pyrimidin-2-yl)urea]
- inhibition at 1 µM [1]: 1.8%
- inhibition at 1 µM [2]: 15.1%
